These are literature values, as cited in PMC4854401, “Biochemical Mechanisms for Geographical Adaptations to Novel Toxin Exposures in Butterflyfish” (PLoS ONE, 2016).

The structures appear in SMILES notation.

In this data set the test system is CYP activity. Details: method as in PMID 24272422. The following applies: black swallowtails (Papilio polyxenes), dose-dependent; cited from earlier work.

`COc1c2occc2cc2ccc(=O)oc12` [xanthotoxin]: the “induced CYP activity, increase” value is listed as “seven fold”.
